Where a name gives a salt, the structure may show the parent alone.

As usually defined, the IC50 is the concentration needed to halve the response being measured.

The test system of this assay is TEAD-dependent transcription. The experiment in a line: Inhibitor activity against TEAD-dependent transcription in a cell-based reporter assay (MSTO-211H+12XGTIIC luciferase). To be noted: Homo sapiens; MSTO-211H+12XGTIIC cells, 24 hours incubation, luciferase luminescence normalized to cell viability fluorescence, geometric mean; read-out: MSTO-211H GMean IC50 (uM) Cell Assay Reporter Cell Variant: TEAD. The text has this:
Determine Inhibitor Activity Against TEAD-Dependent Transcription in a Cell-Based Reporter Assay
The human mesothelioma cell line MSTO-211H was stably transfected with a pGL4.21 plasmid containing a synthetic promoter with 12 copies of the GTIIC TEAD response element that drives the expression of a luciferase reporter gene^1 using Lipofectamine transfection reagent (Thermo Fisher). Transfected cells were selected using puromycin and single cell clones expressing this construct (referred to as MSTO-211H+12XGTIIC) were generated by limiting dilution. MSTO-211H cells was characterized by genetic alterations in key components of the Hippo pathway^2, resulting in up-regulation of YAP/TEAD-mediated transcription. […] To evaluate TEAD inhibitors, the MSTO-211H+12XGTIIC cell line was seeded in a 96-well plate in 50 μL of culture media at 1×10^4 cells per well and incubated at 37° C. overnight. Serial dilutions of compounds (in total volume of 50 μL of culture media) were added to the cells and incubated at 37° C. for 24 hours. Each plate included cells treated with DMSO as high controls and cells treated with 20 μM of the reference compound K-975 (a known TEAD inhibitor)^3 as low controls. Cell viability was assayed by the addition of 25 μL of CellTiter-Fluor reagent (Promega) followed by a 30-minute incubation at 37° C. and quantification of the fluorescence signal (Ex400/Em505). Subsequently, luciferase expression was assayed by the addition of 25 μL of ONE-Glo reagent (Promega) followed by a 10-minute incubation at room temperature and quantification of the luminescence signal. The luminescence signal was normalized to the fluorescence signal to correct for any loss in cell viability over the 24-hour compound incubation period. The percentage of inhibition of normalized luminescence signal, indicative of compound-mediated inhibition of TEAD-dependent transcription, at individual compound concentrations relative to high and low controls was calculated. The data were analyzed by using nonlinear regression to generate IC50 values for individual compounds.
On the technique in general: Reporter assays use an easily measured gene product as a stand-in for the process of interest.

For `CN1CCN(C/C=C/C(=O)N2CCc3ccc(Oc4cccc(F)c4)cc3C2)CC1` [P-0040, (E)-1-(7-(3-fluorophenoxy)-3,4-dihydroisoquinolin-2(1H)-yl)-4-(4-methylpiperazin-1-yl)but-2-en-1-one], the IC50 is greater than 20 µM.
The same measure for `C=CC(=O)N1CCc2cc(C)c(Oc3ccccc3)cc2C1` [P-0041, 1-(6-methyl-7-phenoxy-3,4-dihydroisoquinolin-2(1H)-yl)prop-2-en-1-one]: 0.001 to 0.5 µM.
Consider `C=CC(=O)N1CCc2cc(C)c(Oc3cccc(F)c3)cc2C1` [P-0042, 1-(7-(3-fluorophenoxy)-6-methyl-3,4-dihydroisoquinolin-2(1H)-yl)prop-2-en-1-one], for which the IC50 lay within 0.001 to 0.5 µM.
The same measure for `C=CC(=O)N1CCc2cc(C)c(Oc3ccc(F)cc3)cc2C1` [P-0043, 1-(7-(4-fluorophenoxy)-6-methyl-3,4-dihydroisoquinolin-2(1H)-yl)prop-2-en-1-one]: 0.001 to 0.5 µM; for `C=CC(=O)N1CCc2ccc(Oc3ccc(F)c(C(F)(F)F)c3)cc2C1` [P-0044, 1-(7-(4-fluoro-3-(trifluoromethyl)phenoxy)-3,4-dihydroisoquinolin-2(1H)-yl)prop-2-en-1-one]: 0.001 to 0.5 µM.
In the case of `C=CC(=O)N1CCc2ccc(Oc3ccc(C(F)(F)F)c(F)c3)cc2C1` [P-0045, 1-(7-(3-fluoro-4-(trifluoromethyl)phenoxy)-3,4-dihydroisoquinolin-2(1H)-yl)prop-2-en-1-one], the IC50 was in the range of 0.001 to 0.5 µM.
The same measure for `C=CC(=O)N1CCc2ccc(Oc3cccc(C4CC4)c3)cc2C1` [P-0046, 1-(7-(3-cyclopropylphenoxy)-3,4-dihydroisoquinolin-2(1H)-yl)prop-2-en-1-one]: 0.001 to 0.5 µM.
Consider `C=CC(=O)N1CCc2ccc(Oc3ccc(C4CC4)cc3)cc2C1` [P-0047, 1-(7-(4-cyclopropylphenoxy)-3,4-dihydroisoquinolin-2(1H)-yl)prop-2-en-1-one], for which the IC50 lay within 0.001 to 0.5 µM.
Consider `C=CC(=O)N1CCc2ccc(Oc3ccc(F)c(C4CC4)c3)cc2C1` [P-0048, 1-(7-(3-cyclopropyl-4-fluorophenoxy)-3,4-dihydroisoquinolin-2(1H)-yl)prop-2-en-1-one], for which the IC50 lay within 0.001 to 0.5 µM.
Next, `[2H]C([2H])=C([2H])C(=O)N1CCc2ccc(Oc3ccc(C(F)(F)F)c(F)c3)cc2C1` [P-0049, 1-(7-(3-fluoro-4-(trifluoromethyl)phenoxy)-3,4-dihydroisoquinolin-2(1H)-yl)prop-2-en-1-one-2,3,3-d3]: 0.001 to 0.5 µM.
Next, `C=CC(=O)N1CCc2ccc(Oc3ccc(C4CC4)c(F)c3)cc2C1` [P-0050, 1-(7-(4-cyclopropyl-3-fluorophenoxy)-3,4-dihydroisoquinolin-2(1H)-yl)prop-2-en-1-one]: 0.001 to 0.5 µM; `C=C(F)C(=O)N1CCc2ccc(Oc3ccc(C(F)(F)F)nc3)cc2C1` [P-0051, 2-fluoro-1-(7-((6-(trifluoromethyl)pyridin-3-yl)oxy)-3,4-dihydroisoquinolin-2(1H)-yl)prop-2-en-1-one]: 0.001 to 0.5 µM; `C=CC(=O)N1CCc2ccc(Oc3ccc(OC(F)(F)F)cc3)cc2C1` [P-0052, 1-(7-(4-(trifluoromethoxy)phenoxy)-3,4-dihydroisoquinolin-2(1H)-yl)prop-2-en-1-one]: greater than 20 µM.
The same measure for `C=CC(=O)N1CCc2ccc(Oc3ccc(C(F)(F)F)cn3)cc2C1` [P-0053, 1-(7-((5-(trifluoromethyl)pyridin-2-yl)oxy)-3,4-dihydroisoquinolin-2(1H)-yl)prop-2-en-1-one formate]: 0.001 to 0.5 µM; for `C=CC(=O)N1CCc2ccc(NC34CCC(CC3)CC4)cc2C1` [P-0054, 1-(7-(bicyclo[2.2.2]octan-1-ylamino)-3,4-dihydroisoquinolin-2(1H)-yl)prop-2-en-1-one formate]: 0.001 to 0.5 µM; for `C=CC(=O)N1CCc2ccc(NC3CC4(CCC4)C3)cc2C1` [P-0055, 1-(7-(spiro[3.3]heptan-2-ylamino)-3,4-dihydroisoquinolin-2(1H)-yl)prop-2-en-1-one formate]: 0.001 to 0.5 µM.
For `C=CC(=O)N1CCc2ccc(N[C@H]3CC[C@H](C(F)(F)F)CC3)cc2C1` [P-0056, 1-(7-(((1r,4r)-4-(trifluoromethyl)cyclohexyl)amino)-3,4-dihydroisoquinolin-2(1H)-yl)prop-2-en-1-one], the IC50 lay in the range of 0.001 to 0.5 µM.
The same measure for `C=CC(=O)N1CCc2ccc(Oc3cc(F)cc(F)c3)cc2C1` [P-0057, 1-(7-(3,5-difluorophenoxy)-3,4-dihydroisoquinolin-2(1H)-yl)prop-2-en-1-one]: 0.001 to 0.5 µM.
Next, `C=CC(=O)N1CCc2ccc(Oc3cc(F)ccc3F)cc2C1` [P-0058, 1-(7-(2,5-difluorophenoxy)-3,4-dihydroisoquinolin-2(1H)-yl)prop-2-en-1-one]: 0.001 to 0.5 µM; `C=CC(=O)N1CCc2ccc(Oc3ccccn3)cc2C1` [P-0059, 1-(7-(pyridin-2-yloxy)-3,4-dihydroisoquinolin-2(1H)-yl)prop-2-en-1-one]: greater than 20 µM.
Regarding `C=CC(=O)N1CCc2ccc(Oc3ccnc(C(F)(F)F)c3)cc2C1` [P-0060, 1-(7-((2-(trifluoromethyl)pyridin-4-yl)oxy)-3,4-dihydroisoquinolin-2(1H)-yl)prop-2-en-1-one], the IC50 is 0.001 to 0.5 µM.
`C=CC(=O)N1CCc2ccc(OC3CCCCC3)cc2C1` [P-0061, 1-(7-(cyclohexyloxy)-3,4-dihydroisoquinolin-2(1H)-yl)prop-2-en-1-one]: the IC50 was in the range of 0.001 to 0.5 µM.
Take `C=CC(=O)N1CCc2ccc(OC3CCC(F)(F)CC3)cc2C1` [P-0062, 1-(7-((4,4-difluorocyclohexyl)oxy)-3,4-dihydroisoquinolin-2(1H)-yl)prop-2-en-1-one]: the concentration for half-maximal inhibition (IC50) lay within 0.001 to 0.5 µM.
The same measure for `C=CC(=O)N1CCc2ccc(Oc3ccccc3F)cc2C1` [P-0063, 1-(7-(2-fluorophenoxy)-3,4-dihydroisoquinolin-2(1H)-yl)prop-2-en-1-one]: 0.001 to 0.5 µM.
Next, `C=CC(=O)N1CCc2ccc(OC3CCC4(CCCC4)CC3)cc2C1` [P-0064, 1-(7-(spiro[4.5]decan-8-yloxy)-3,4-dihydroisoquinolin-2(1H)-yl)prop-2-en-1-one]: 0.5 to 20 µM; `C=CC(=O)N1CCc2ccc(N[C@H]3CC[C@@H](C(F)(F)F)CC3)cc2C1` [P-0065, 1-(7-(((1s,4s)-4-(trifluoromethyl)cyclohexyl)ami-no)-3,4-dihydroisoquinolin-2(1H)-yl)prop-2-en-1-one formate]: 0.001 to 0.5 µM.
Next, `C=CC(=O)N1CCc2ccc(NC3CCCC3)cc2C1` [P-0066, 1-(7-(cyclopentylamino)-3,4-dihydroisoquinolin-2(1H)-yl)prop-2-en-1-one]: 0.001 to 0.5 µM.
Take `C=CC(=O)N1CCc2ccc(Cc3ccc(F)c(C(F)(F)F)c3)cc2C1` [P-0067, 1-(7-(4-fluoro-3-(trifluoromethyl)benzyl)-3,4-dihydroisoquinolin-2(1H)-yl)prop-2-en-1-one]: the IC50 was in the range of 0.001 to 0.5 µM.
The same measure for `C=CC(=O)N1CCc2ccc(Cc3ccc(C(F)(F)F)c(F)c3)cc2C1` [P-0068, 1-(7-(3-fluoro-4-(trifluoromethyl)benzyl)-3,4-dihydroisoquinolin-2(1H)-yl)prop-2-en-1-one]: 0.001 to 0.5 µM; for `C=CC(=O)N1CCc2ccc(Oc3cccc(C(F)(F)F)n3)cc2C1` [P-0069, 1-(7-((6-(trifluoromethyl)pyridin-2-yl)oxy)-3,4-dihydroisoquinolin-2(1H)-yl)prop-2-en-1-one]: 0.5 to 20 µM; for `C=CC(=O)N1CCc2ccc(OC3CCCCCC3)cc2C1` [P-0070, 1-(7-(cycloheptyloxy)-3,4-dihydroisoquinolin-2(1H)-yl)prop-2-en-1-one]: 0.001 to 0.5 µM.
Take `C=CC(=O)N1CCc2ccc(OC3CCC(C(F)(F)F)CC3)cc2C1` (stereo not drawn) [P-0071, 1-(7-((4-(trifluoromethyl)cyclohexyl)oxy)-3,4-dihydroisoquinolin-2(1H)-yl)prop-2-en-1-one]: the IC50 is 0.001 to 0.5 µM.
Next, `C=CC(=O)N1CCc2ccc(Cc3ccc(C(F)(F)F)cc3)cc2C1` [P-0072, 1-(7-(4-(trifluoromethyl)benzyl)-3,4-dihydroisoquinolin-2(1H)-yl)prop-2-en-1-one]: 0.001 to 0.5 µM; `C=CC(=O)N1CCc2ccc(Oc3ccc(Cl)c(F)c3)cc2C1` [P-0073, 1-(7-(4-chloro-3-fluorophenoxy)-3,4-dihydroisoquinolin-2(1H)-yl)prop-2-en-1-one]: 0.001 to 0.5 µM.
Next, `C=CC(=O)N1CCc2ccc(OC3CC4(CCC4)C3)cc2C1` [P-0074, 1-(7-(spiro[3.3]heptan-2-yloxy)-3,4-dihydroisoquinolin-2(1H)-yl)prop-2-en-1-one]: 0.001 to 0.5 µM; `C=CC(=O)N1CCc2ccc(O[C@H]3C[C@@H]4[C@H](C3)C4(F)F)cc2C1` [P-0075, 1-(7-(((1R,3r,5S)-6,6-difluorobicyclo[3.1.0]hexan-3-yl)oxy)-3,4-dihydroisoquinolin-2(1H)-yl)prop-2-en-1-one]: 0.001 to 0.5 µM.

Values taken from US20240174659A1, “COMPOUNDS AND METHODS FOR YAP/TEAD MODULATION AND INDICATIONS THEREFOR” (Opna Bio SA, priority 2021, published 2024).
